# Patent US20140228430A1, “Method of Accelerating Corneal Wound Healing” (Alcon Research, Ltd., priority 2010, published 2014)
# Test system: Rat Model of Corneal Injury
# Test: Rat model of corneal injury (corneal epithelial wound closure)
# Assay type: in vivo
# Conditions: topical ocular 5 μl every 2 hrs for first 8 hrs, female Lewis rats, compared with positive control 0.4% HA; for normalized number of completely healed eyes (Healed 24 hours n=10): number/10 eyes
# Protocol: Female Lewis rats (175-200 g) were anesthetized with a xylazine/ketamine cocktail (5 mg/kg and 50 mg/kg respectively). A 3 mm diameter circle was superficially demarcated on the central cornea using a 3 mm trephine. Using a corneal rust ring remover (AlgerbrushΠ Alger Co.) tipped with a 1 mm steel burr; the corneal epithelium was removed to the basement membrane within the established 3 mm boundary Immediately following epithelial removal, the corneas were topically stained with 2% sodium fluorescein (Alcon), washed with balanced saline (BSS) and Time 0 hrs images acquired. After 24 hrs, animals were again anesthetized and Time 24 hrs images were acquired.
# Immediately after acquisition of Time 0 images, test articles (5 μl) were topically administered to the ocular surface. Animals received topical administration every 2 hrs for the first 8 hrs of the 24 hrs study time. A 0.4% solution of Hyaluronic Acid (HA) was prepared in phosphate-buffered saline (PBS). Compounds 1 and 5 were prepared in PBS and stored at −70° C. until use. During dosing, compounds were stored at 4° C.
# Anesthetized rats (Time 0: xylazine/ketamine; Time 24 hrs: 5% isoflurane gas). The area of the cornea devoid of epithelial cells was stained by topical application of a 2% sodium fluorescein solution (Alcon), followed 10 seconds later with a thorough rinsing with BSS. Images from stained eyes were collected with a Canon digital camera fitted with a macro and close-up lens such that the cornea filled almost the entire image field. A continuous and flash illumination was provided with a Novoflex Cold Light Source Macrolight Plus illuminator. The continuous source was used to focus the eye with the aid of the video output of the Canon camera. A flash lamp illuminator and ring light attached to the camera lens system provided a synchronized and uniform illumination of the corneal surface. Eyes were illuminated and images were captured through a set of filters designed for fluorescein excitation (482±35 nm) and emission (536±40 nm).
# Two image files were recorded for each exposure, a JPG-format RGB (red-green-blue) file used for image display and a Canon Raw file containing the raw sensor data. The raw data was extracted to a 16-bit portable greymap file that was subsequently processed with a demosaic function to make an image of only the green pixels containing the fluorescein information. A circular region of interest (ROI) was centered on the cornea and the automated analysis was performed using RatOSIWound v 2.0 software (Alcon). Automated analysis calculated the total fluorescein positive area of a single large spot indicative of the epithelial wound. The % closure at 24 hours (indicated as “% Closure 24 hours” on the ordinate axis of the graphs in FIGS. 1 and 3) was calculated as
# while the number of eyes that were totally healed (that is, had no detectable defect; indicated as “Healed 24 hours n=10” on the ordinate axis of the graphs in FIGS. 2 and 4), normalized as number/10 eyes, was also determined
# Data were analyzed using an ANOVA with a Dunnett post-hoc test at a 95% confidence interval.
SMILES,% wound closure (% Closure 24 hours) (0.5% w/v dose in PBS),normalized number of completely healed eyes (Healed 24 hours n=10) (0.5% w/v dose in PBS),% wound closure (% Closure 24 hours) (1% w/v dose in PBS),normalized number of completely healed eyes (Healed 24 hours n=10) (1% w/v dose in PBS)
COC(=O)CCC[C@H](O)[C@H](O)CO [compound 1],as effective as the positive control 0.4% HA,as effective as the positive control 0.4% HA,as effective as the positive control 0.4% HA,as effective as the positive control 0.4% HA
O=C([O-])CCC[C@H](O)[C@H](O)CO.[Li+] [compound 5],–,–,as effective as the positive control 0.4% HA,as effective as the positive control 0.4% HA
